Legend:
[1] = Pharmacokinetic study in mice; assay type: in vivo; conditions: both sexes, mouse, po, BALB/c mice, single dose of 100 mg/kg orally by gavage, plasma, Mean +/− SD; for half-life: read-out: T½ (converted)
Experimental: BALB/c mice (2 males and 2 females) of 8 weeks old were administered with the compounds ZTP and ZTQ (formulated with 15% Captsol or a carrier) at a single dose of 100 mg/kg. 0.5, 1, 3, 6, 12, 24, 48, and 72 hrs after administration, blood was taken from ophthalmic vein and plasma was prepared therefrom, to determine the plasma concentrations of ZTP and ZTQ. The pharmacokinetic parameters of the compounds ZTP and ZTQ given orally by gavage in the 4 mice are summarized as below (Tables 2 and 3): […]

[2] = system: Mid PaCa-2; assay: MTT cytotoxicity, Mid PaCa-2; assay type: cell-based; conditions: Homo sapiens, Mid PaCa-2, Pancreatic, 72 hrs, read-out: LC50 (the source's name)
Experimental: (§1) The cytotoxicity of ZTP and ZTQ was analyzed by using human tumor cell lines. Human tumor cell lines were purchased from ATCC and NCI, and cultured in DMEM medium containing 10% FBS at 37° C. in 5% CO2 in an incubator. The cells grown to confluence were used for cytotoxicity analysis. The cells were digested with trypsin, washed with the culture medium, and then counted. 33 tumor cell lines were cultured. The cells were seeded at a density of 3000-6000 cells/well in a 96-well plate and incubated for 16-24 hrs. Then, various concentrations of ZTP or ZTQ dissolved in DMSO were added, and cultured for 72 hrs. The drug-treated cells and control cells were analyzed by MTT.

[3] = system: SK-MEL-5; assay: MTT cytotoxicity, SK-MEL-5; assay type: cell-based; conditions: Homo sapiens, SK-MEL-5, Skin (melanoma), 72 hrs, read-out: LC50 (the source's name)
Experimental: as §1

[4] = system: A549; assay: MTT cytotoxicity, A549; assay type: cell-based; conditions: Homo sapiens, A549, Lung, 72 hrs, read-out: LC50 (the source's name)
Experimental: as §1

[5] = system: MCF-7; assay: MTT cytotoxicity, MCF-7; assay type: cell-based; conditions: Homo sapiens, MCF7, MCF-7, Breast, 72 hrs, read-out: LC50 (the source's name)
Experimental: as §1

[6] = Side effects in tumor transplanted nude mice; assay type: in vivo, nude mice (nu/nu); conditions: during treatment
Experimental: T-cell deficient nude mice (nu/nu) of 6 weeks old were purchased from Charles River Laboratory, and housed and treated in a sterile environment following Institutional Animal Care & Use Committee Program. 48 mice were respectively subcutaneously inoculated on ribbed belly with 5×10^6 human liver cancer cells (HepG3B), human lung caner cells (NCI-H23), and human colon cancer cells (HCT-116) suspended in 0.2 ml HBSS/matrigel (50:50, V/V). When the tumor grew to have an average diameter of 7-8 mm and a volume of about 100-200 mm^3, 24 mice were picked up, and assigned to treatment groups (16 animals/2 groups), and a control group (8 animals). The 2 treatment groups were administered with the compounds ZTP and ZTQ dissolved in 15% Captsol respectively at a dose of 30 mg/kg and 60 mg/kg, and the control group only received an excipient (15% Captsol).
The dose schedule of the test compounds in the tumor transplanted nude mice was as follows: the compounds ZTP and ZTQ dissolved in 15% Captsol were daily orally administered as a 200 μl solution containing 0.75 mg of ZTP and 1.5 mg of ZTQ for 5 days/week over 3 consecutive weeks, followed by one-week break; and the control group was only administered with 200 μl of the placebo (15% Captsol) for 3 weeks, followed by 1 week of break. The two groups of animals were housed separately, and allowed to free access to food.

Compound | Cmax [1] [µM] | Tmax [1] [h] | half-life [1] [h] | CC50 [2] [nM] | CC50 [3] [nM] | CC50 [4] [nM] | CC50 [5] [nM] | side effect, including the change in body weight [6]
CNC(=O)c1cc(Oc2ccc(NC(=S)Nc3ccc(Cl)c(C(F)(F)F)c3)cc2)ccn1 [ZTP, N-[4-chloro-3-(trifluoromethyl)phenyl]-[4-(N-methyl-formamide)(4-pyridyloxy)phenyl]-thiourea] | 51 | 6.4 | 4.1 | 1250 | 1990 | 1220 | 2210 | 
CNC(=O)c1cc(Sc2ccc(NC(=S)Nc3ccc(Cl)c(C(F)(F)F)c3)cc2)ccn1 [ZTQ, N-[4-chloro-3-(trifluoromethyl)phenyl]-[4-(N-methyl-formamide)(4-pyridylthio)phenyl]-thiourea] | 52 | 6.6 | 4.2 | 910 | 1540 | 1010 | 1700 | no obvious side effect
